pKi: −log10 of the molar value. Read-outs that look alike come from different tables or passages of the source.
Molecular target: WDR5 (Homo sapiens (Human), UniProt P61964)
Test: TR-FRET binding assay, displacement of 10mer-Thr-FAM probe from His-tagged WDR5
Description: The LanthaScreenTM Elite Tb-anti-HIS Antibody from ThermoFisher Scientific was used for this purpose. […] The ratio of the 520 and 495 signals are then utilized to generate a dose-response curve to calculate an IC50 value. […] WDR[…] tag protein is used at 2 nM.

[1] = Inhibition of WDR5 by TR-FRET assay

SMILES	pKi [1]	pKi
Cc1cc(CNC(=O)c2cc(CNC3=NCCN3)cc(-c3ccc(F)nc3C)c2)ccc1Cl [Example 5, N-(4-chloro-3-methylbenzyl)-3-(((4,5-dihydro-1H-imidazol-2-yl)amino)methyl)-5-(6-fluoro-2-methylpyridin-3-yl)benzamide]	10.70	–
Cc1ncc(CNC(=O)c2cc(CNC3=NCCN3)cc(-c3ccc(F)nc3C)c2)cn1 [Example 37, 3-(((4,5-dihydro-1H-imidazol-2-yl)amino)methyl)-5-(6-fluoro-2-methylpyridin-3-yl)-N-((2-methylpyrimidin-5-yl)methyl)benzamide]	8.68	–
COc1cc(CNC(=O)c2cc(CNC3=NCCN3)cc(-c3ccc(F)nc3C)n2)cc(OC)c1 [Example 78, 4-(((4,5-Dihydro-1H-imidazol-2-yl)amino)methyl)-N-(3,5-dimethoxybenzyl)-6′-fluoro-2′-methyl-[2,3′-bipyridine]-6-carboxamide]	9.14	–
COc1cc(OC)cc(C(C)NC(=O)c2cc(Cn3ccnc3C)cc(-c3ccc(F)c(CO)c3)n2)c1 (stereo not drawn) [Example 163, N-(1-(3,5-dimethoxyphenyl)ethyl)-6-(4-fluoro-3-(hydroxymethyl)phenyl)-4-((2-methyl-1H-imidazol-1-yl)methyl)picolinamide]	< 7.48	–
Cc1cc(-c2cc(CNC3=NCCN3)cc(C(=O)NCc3cc(Cl)ccn3)c2)cc(C)n1 [Example B111]	–	10.06
COc1cc(CNC(=O)c2cc(CNC(=N)N)cc(-c3ccnc(C)c3)c2)cc(OC)c1 [Example 99, N-(3,5-Dimethoxybenzyl)-3-(guanidinomethyl)-5-(2-methylpyridin-4-yl)benzamide]	8.96	–
Cc1ccnc(C(NC(=O)c2cc(CNC3=NCCN3)cc(-c3cc(C)cnc3F)c2)C2CC2)c1 (stereo not drawn) [Example 39, N-(cyclopropyl(4-methylpyridin-2-yl)methyl)-3-(((4,5-dihydro-1H-imidazol-2-yl)amino)methyl)-5-(2-fluoro-5-methylpyridin-3-yl)benzamide]	> 10.00	–
COc1ccc(CNC(=O)c2cc(CNC3=NCCN3)cc(-c3ccnc(C)c3)c2)cc1Cl [Example 23, N-(3-chloro-4-methoxybenzyl)-3-(((4,5-dihydro-1H-imidazol-2-yl)amino)methyl)-5-(2-methylpyridin-4-yl)benzamide]	8.89	–
COc1cc(OC)cc(C(C)NC(=O)c2cc(CNC3=NCCN3)cc(-c3cnccc3C)c2)c1 (stereo not drawn) [Example 20, 3-(((4,5-dihydro-1H-imidazol-2-yl)amino)methyl)-N-(1-(3,5-dimethoxyphenyl)ethyl)-5-(4-methylpyridin-3-yl)benzamide]	9.22	–
Cc1cc(-c2cc(CNC3=NCCN3)cc(C(=O)NCc3cc(Cl)cc(Cl)c3)c2)ccn1 [Example B81]	–	10.48
COc1ccc(CNC(=O)c2cc(CNC3=NCCN3)cc(-c3cnccc3C)c2)cc1Cl [Example 14, N-(3-chloro-4-methoxybenzyl)-3-(((4,5-dihydro-1H-imidazol-2-yl)amino)methyl)-5-(4-methylpyridin-3-yl)benzamide]	9.13	–
Cc1nc(F)ccc1-c1cc(CNC2=NCCN2)cc(C(=O)NCc2ccc(Cl)c(Cl)c2)c1 [Example B64]	–	10.67
COc1cc(CNC(=O)c2cc(CNC3=NCCN3)cc(-c3ccc(F)nc3C)n2)ccn1 [Example 79, 4-(((4,5-Dihydro-1H-imidazol-2-yl)amino)methyl)-6′-fluoro-N-((2-methoxypyridin-4-yl)methyl)-2′-methyl-[2,3′-bipyridine]-6-carboxamide]	8.24	–
Cc1cc(CNC(=O)c2cc(CNC3=NCCC3)cc(-c3ccc(F)c(CO)c3)c2)ccc1Cl [Example 65, N-(4-chloro-3-methylbenzyl)-5-(((3,4-dihydro-2H-pyrrol-5-yl)amino)methyl)-4′-fluoro-3′-(hydroxymethyl)-[1,1′-biphenyl]-3-carboxamide]	8.37	–
Cc1cc(CNC(=O)c2cc(CNC3=NCCN3)cc(-c3cnc(F)c(C)c3)c2)ccc1Cl [Example 31, N-(4-Chloro-3-methylbenzyl)-3-(((4,5-dihydro-1H-imidazol-2-yl)amino)methyl)-5-(6-fluoro-5-methylpyridin-3-yl)benzamide]	> 10.00	–
Cc1nccn1Cc1cc(C(=O)NCc2ccc(Cl)c(Cl)c2)cc(-c2cccc(CO)c2)c1 [Example 147, N-(3,4-dichlorobenzyl)-3′-(hydroxymethyl)-5-((2-methyl-1H-imidazol-1-yl)methyl)-[1,1′-biphenyl]-3-carboxamide]	9.51	–
COc1ccnc(CNC(=O)c2cc(CNC3=NCCN3)cc(-c3ccc(F)nc3C)c2)c1 [Example 11, 3-(((4,5-Dihydro-1H-imidazol-2-yl)amino)methyl)-5-(6-fluoro-2-methylpyridin-3-yl)-N-((4-methoxypyridin-2-yl)methyl)benzamide]	9.66	–
COc1ccc(CNC(=O)c2cc(CNC(=N)N)cc(-c3ccnc(C)c3)c2)cc1Cl [Example 101, N-(3-Chloro-4-methoxybenzyl)-3-(guanidinomethyl)-5-(2-methylpyridin-4-yl)benzamide]	8.68	–

SMILES	pKi [1]	pKi
CCn1cc(-c2cc(CNC(=N)CC3CC3)cc(C(=O)N[C@H](c3ccc(F)c(C)c3)C3CC3)c2)c(C(F)(F)F)n1 [Example 107, (S)—N-(Cyclopropyl(4-fluoro-3-methylphenyl)methyl)-3-((2-cyclopropylacetimidamido)methyl)-5-(1-ethyl-3-(trifluoromethyl)-1H-pyrazol-4-yl)benzamide]	9.82	–
Cc1cc(-c2cc(CNC3=NCCN3)cc(C(=O)NCc3ccc(Cl)cn3)c2)ccn1 [Example 27, N-((5-chloropyridin-2-yl)methyl)-3-(((4,5-dihydro-1H-imidazol-2-yl)amino)methyl)-5-(2-methylpyridin-4-yl)benzamide]	8.82	–
Cc1ccncc1-c1cc(CNC2=NCCN2)cc(C(=O)NCc2cc(Cl)cc(Cl)c2)c1 [Example B87]	–	9.70
Cc1cc(-c2cc(CNC3=NCCN3)cc(C(=O)NCc3ccc(Cl)c(Cl)c3)c2)ccn1 [Example B74]	–	10.51
COc1ccnc(CNC(=O)c2cc(CNC3=NCCN3)cc(-c3ccc(F)cc3OC)c2)c1 [Example 49, 5-(((4,5-Dihydro-1H-imidazol-2-yl)amino)methyl)-4′-fluoro-2′-methoxy-N-((4-methoxypyridin-2-yl)methyl)-[1,1′-biphenyl]-3-carboxamide]	9.52	–
Cc1cc(F)ccc1-c1cc(CNC2=NCCC2)cc(C(=O)N[C@@H](C)c2ccc(F)c(C(F)(F)F)c2)n1 [Example 97, (S)-4-(((3,4-dihydro-2H-pyrrol-5-yl)amino)methyl)-6-(4-fluoro-2-methylphenyl)-N-(1-(4-fluoro-3-(trifluoromethyl)phenyl)ethyl)picolinamide]	8.14	–
CCn1cc(-c2cc(CNC(=N)C3(C)CC3)cc(C(=O)N[C@H](c3ccc(F)c(C)c3)C3CC3)c2)c(C(F)(F)F)n1 [Example 109, (S)—N-(Cyclopropyl(4-fluoro-3-methylphenyl)methyl)-3-(1-ethyl-3-(trifluoromethyl)-1H-pyrazol-4-yl)-5-((1-methylcyclopropane-1-carboximidamido)methyl)benzamide]	9.89	–
Cc1cnc(F)c(-c2cc(CNC3=NCCN3)cc(C(=O)N(C)C)c2)c1 [Example 40, 3-(((4,5-dihydro-1H-imidazol-2-yl)amino)methyl)-5-(2-fluoro-5-methylpyridin-3-yl)-N,N-dimethylbenzamide]	7.19	–
COc1ccc(CNC(=O)c2cc(CNC3=NCCN3)cc(-c3ccc(F)nc3C)c2)cc1OC [Example 4, 3-(((4,5-Dihydro-1H-imidazol-2-yl)amino)methyl)-N-(3,4-dimethoxybenzyl)-5-(6-fluoro-2-methylpyridin-3-yl)benzamide]	9.44	–
COc1cc(CNC(=O)c2cc(CNC3=NCCN3)cc(-c3ccnc(C)c3)c2)cc(OC)c1 [Example B72]	–	9.20
Cc1ccc(CNC(=O)c2cc(CNC3=NCCN3)cc(-c3cnccc3C)c2)cn1 [Example 28, 3-(((4,5-Dihydro-1H-imidazol-2-yl)amino)methyl)-5-(4-methylpyridin-3-yl)-N-((6-methylpyridin-3-yl)methyl)benzamide]	8.12	–
O=C(NCc1ccc(Cl)c(Cl)c1)c1cc(CNC2=NCCN2)ccc1F [Example B36, N-(3,4-dichlorobenzyl)-5-(((4,5-dihydro-1H-imidazol-2-yl)amino)methyl)-2-fluorobenzamide]	–	9.04
Cc1cc([C@H](C)NC(=O)c2cc(CNC3=NCCC3)cc(-c3ccc(F)cc3C(F)(F)F)n2)ccc1Cl [Example 92, (S)—N-(1-(4-chloro-3-methylphenyl)ethyl)-4-(((3,4-dihydro-2H-pyrrol-5-yl)amino)methyl)-6-(4-fluoro-2-(trifluoromethyl)phenyl)picolinamide]	8.82	–
COc1cc(CNC(=O)c2cc(CNC3=NCCC3)cc(-c3cc(C)c(F)cc3C)c2)cc(OC)c1 [Example 62, 5-(((3,4-Dihydro-2H-pyrrol-5-yl)amino)methyl)-N-(3,5-dimethoxybenzyl)-4′-fluoro-2′,5′-dimethyl-[1,1′-biphenyl]-3-carboxamide]	9.68	–
Cc1cc(-c2cc(CNC3=NCCN3)cc(C(=O)NCc3cc(Cl)ccn3)c2)ccn1 [Example 22, N-((4-chloropyridin-2-yl)methyl)-3-(((4,5-dihydro-1H-imidazol-2-yl)amino)methyl)-5-(2-methylpyridin-4-yl)benzamide]	9.55	–
COc1cc(CNC(=O)c2cc(CNC3=NCCN3)cc(-c3ccnc(C)c3)c2)ccc1Cl [Example 17, N-(4-chloro-3-methoxybenzyl)-3-(((4,5-dihydro-1H-imidazol-2-yl)amino)methyl)-5-(2-methylpyridin-4-yl)benzamide]	8.49	–
Cc1cc(C(C)NC(=O)c2cc(CNC3=NCCC3)cc(-c3ccc(F)cc3C(F)(F)F)n2)ncc1Cl (stereo not drawn) [Example 96, N-(1-(5-chloro-4-methylpyridin-2-yl)ethyl)-4-(((3,4-dihydro-2H-pyrrol-5-yl)amino)methyl)-6-(4-fluoro-2-(trifluoromethyl)phenyl)picolinamide]	8.82	–
Cc1cc(CNC(=O)c2ccc(F)c(CNC3=NCCN3)c2)ccc1Cl [Example B47]	–	9.72

Source: US10807959B2, “WDR5-MLL1 inhibitors and modulators” (Vanderbilt University, priority 2018, dated 2020)
